Measured values from patent US20240271096A1, “EFFICIENT DIFFERENTIATION OF SECOND HEART FIELD CARDIAC PROGENITOR CELLS AND RIGHT VENTRICLE CARDIOMYOCYTES FROM HUMAN PLURIPOTENT STEM CELLS” (Wisconsin Alumni Research Foundation, priority 2023, published 2024).

System: reporterless hiPSC line
Experiment: Immunostaining of marker proteins in hiPSC-derived cardiac progenitor cells and cardiomyocytes
Assay type: cell-based, human
Method: For LV-cardiomyocyte differentiation, cardiac differentiation was performed according to the protocol published by (Lian et al., 2012, Proc Natl Acad Sci USA 109:[…]-57). Cells were dissociated with StemPro Accutase Cell Dissociation Reagent at 37° C. for 5 minutes. HESCs were seeded on Matrigel-coated 24-well plates (Corning) in StemFlex Medium supplemented with 10 μmol/[…] were seeded on iMatrix-511-coated 12-well plates (Corning) in StemFit A[…] supplemented with 10 μmol/[…] at seeding densities of 1×10^5 cells/cm^2 for hESCs and 1.25-2.5×10^4 cells/cm^2 for hiPSCs. Cells were cultured for 4 days until the start of differentiation (day 0). On day 0, the medium was changed to RPMI 1640 Medium (Thermo Fisher Scientific) supplemented with B-27 Supplement minus insulin (Thermo Fisher Scientific) (RPMI/B27-insulin) or B-27 Supplement with insulin (Thermo Fisher Scientific), and 12 μmol/L CHIR 99021 (SelleckChem, Houston, TX, United States), and the cells incubated in this medium for 24 h (day 1). On day 1, the medium was changed to RPMI/B27-insulin. […] On day 3, the medium was changed to RPMI/B27-insulin supplemented with 5 μmol/L IWP2 (SelleckChem) and on day 5, the medium was changed to 1 ml RPMI/B27-insulin. From day 7, the cells were cultured with RPMI/B27-insulin, and the cells were fed every other day. On day 12, the cells were washed with PBS (Thermo Fisher Scientific) and cultured with DMEM or RPMI, no glucose supplemented with 8 mmol/L L-(+)-Lactic acid (Merck) (Tohyama et al., 2013 Cell Stem Cell, 12:127-37). The medium was changed every other day until day 17. After day 17, the cells were cultured with RPMI/B27 and fed every 2 to 3 days. For long-term culture, the cells were dissociated with TrypLETM Select Enzyme (10×) (Thermo Fisher Scientific) at 37° C. for 15-20 minutes and seeded on Matrigel- or iMatrix-511-coated plates. […] For FIG. 15A and FIG. 15B, dorsomorphin (DM) or 3 μg/L insulin were added on day 0 (for 24 hours), 1, 3, or 5 (for 48 hours). Cells were plated on iMatrix-511-coated plates and fixed in 4% paraformaldehyde (Nacalai, Kyoto, Japan) for 15 minutes. Cells were permeabilized with 0.1% Triton X-100 (Sigma-Aldrich, St. Louis, MO, United States)/PBS and blocked with 10% goat serum (Sigma-Aldrich). Primary and secondary antibodies were diluted in 0.1% Triton X-100/PBS with 5% goat serum and stained with Hoechst 33342 (Thermo Fisher Scientific) at 1 μg/mL, mouse anti-cardiac troponin T monoclonal IgG1 (GTX28295, GeneTex, Irvine, CA, United States) diluted at 1:16000, mouse anti-α-actinin monoclonal IgG1 (A7811, Sigma-Aldrich) diluted at 1:1000, rabbit anti-MLC2v monoclonal IgG (ab92721, Abcam, Cambridge, United Kingdom) diluted at 1:500, rabbit anti-CXCR4 monoclonal IgG (ab181020, Abcam) diluted at 1:2000, rabbit anti-NKX2-5 monoclonal IgG (Cat #. […], Cell Signaling Technology, Danvers, MA, United States) diluted at 1:2500, mouse anti-Nav1.5 (Car #. ASC-013, Alomone Labs) diluted at 1:1000, rabbit anti-connexin 43 (Cat #. 83649, Cell Signaling Technology) diluted at 1:1000, and mouse anti-TBX5 monoclonal IgG2a (Cat #. sc-515536, Santa Cruz Biotechnology, Dallas, TX, United States) diluted at 1:500. These cells were then incubated with a secondary antibody, goat anti-mouse or rabbit polyclonal IgG conjugated with iFluor 488 or 555 (AAT Bioquest, Sunnyvale, CA, United States) diluted at 1:1000, for 1 hour at room temperature. The cells were then observed with IX71 (Olympus, Tokyo, Japan) or EVOS FL Auto (Thermo Fisher Scientific) and images processed with ImageJ ([…] al., 2012, Nat Methods, 9:671-5).

## insulin
Added on day 1 for 48 hours
  RV cardiomyocytes differentiation: induced optimal RV cardiomyocytes differentiation
Insulin day 0 to day 1, day 6
  CXCR4 immunostaining: upregulation
Insulin day 0 to day 1, day 10
  TBX5 expression (immunostaining): greatly reduced
  expression of pan-cardiomyocyte markers NKX2-5 and cardiac Troponin T (cTnT): expressed
Insulin on day 1 for 48 hours (D1-3)
  immunostaining of TBX5: low
